Source: PMC9145393, “Design, Semisynthesis, and Estrogenic Activity of Lignan Derivatives from Natural Dibenzylbutyrolactones” (Pharmaceuticals, 2022)

What was measured:
[1] = tested on: ER-dependent transcriptional activity in T47D-KBluc cells; assay: ERE-luciferase reporter in T47D-KBluc cells, agonist assessment (absence of E2); assay type: cell-based, human
Protocol: Lactols (5) and (6) were tested as a mixture of the two epimers obtained.
Chemical screening was carried out by using T47D-KBluc cells, an ER+ BC cell line that is stably transfected with the pGL2.TATA.Inr.Luc.neo containing three ER-responsive elements (ERE). The T47D-KBluc cells were maintained in standard growth media as detailed above. Dosing media was further modified by reduction of DCC-FBS to 5%. […] Chemical screening was also carried out by using the triple negative BC cell line MDA-kb2 cells that stably expresses pMMTV.neo.luc gene, an AR- and GR-responsive reporter gene. […] The T47D-KBluc cells or the MDA-kb2 cells were seeded at 100,000 cells per well in 24-well plates (Nunclon, Sigma-Aldrich, Darmstadt, Germany ) and allowed to attach overnight. Then, the media was replaced with 1 mL/well of dosing media and test compounds incubated 24 h. Then, the cells were harvested in 100 µL passive lysis buffer (Promega, Madison, WI, USA) per well. The relative light units (RLUs), which correspond to luciferase activity from each sample, were measured by using Luciferase Assay Reagent (Promega) in a Clarity luminescence microplate reader (BIOTEK, Winooski, VT, USA). The RLUs from each sample were normalized by protein concentration and converted to fold induction with respect to vehicle-treated control. […] Then, the percent of efficacy (E) of each tested compound, as compared with Emax, was calculated. […] Data are expressed as mean ± SEM of triplicate independent experiments, where each treatment was assayed in triplicate. […] Duplicate plates were dosed in parallel to control the effects of compounds on cell viability. The protein concentration was measured in cell lysate using colorimetric assay reagent (BioRad, CA, USA).

rhERα-LBD = molecular target: T1, rhERα-LBD (Homo sapiens, UniProt P03372); assay: LanthaScreen TR-FRET competitive binding assay; details: 10-point competition curves; Mean ± SE; read-out: IC50 (inhibition of Fluormone tracer binding to rhERα)
T1 sequence (P03372 311-547 limits assumed): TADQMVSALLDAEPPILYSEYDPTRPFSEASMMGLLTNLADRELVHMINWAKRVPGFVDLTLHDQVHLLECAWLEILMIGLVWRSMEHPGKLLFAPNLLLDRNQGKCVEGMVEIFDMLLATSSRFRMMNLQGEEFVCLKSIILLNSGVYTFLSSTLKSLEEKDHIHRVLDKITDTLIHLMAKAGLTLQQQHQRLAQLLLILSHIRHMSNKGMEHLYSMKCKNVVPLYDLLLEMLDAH
Protocol: Next, the binding of lignan derivatives to the LBD of rhERα was analyzed by using time-resolved fluorescence resonance energy transfer (TR-FRET) competitive binding assay. […] The LanthaScreen^TM TR-FRET Nuclear Receptor (NR) binding assay (SelectScreen^TM Profiling Service, Life Technologies, Carlsbad, CA, USA) was used for screening of potential binding of lignan derivatives to human ERα [33]. Briefly, the kit uses the recombinant human ERα (rhERα) protein and a tight binding, selective fluorescent ligand, Fluormone^TM tracer. […] The rhERα protein and the tracer form rhERα/tracer complex, resulting in a high FP value. […] Dose-response competition curves were fitted by nonlinear regression analyses in the GraphPad software 8 (GraphPad Software, San Diego, CA, USA) to obtain IC50 values.
Data are expressed as mean ± SEM for from at least three independent experiments, where each concentration is tested in triplicate.

T47D cells = assay: MTT cell viability, E2-depleted T47D cells; assay type: cell-based, human; details: 10 μM, 24 h, absence of E2
Protocol: (§1) The effects of lignan derivatives were evaluated on human ER+ BC cells.
(§2) Cells were maintained in RPMI (Lonza, Basel, Switzerland) growth media, without phenol red, supplemented with 10% fetal bovine serum (FBS) (Lonza), 2 mM glutamine, 10 mM HEPES, 1 mM sodium pyruvate, 100 UI/mL penicillin and 100 μg/mL streptomycin. Cells were growth in a humidified incubator with 5% CO2 at 37 °C.
(§3) The cells were maintained in standard growth media as detailed above and seeded at exponential growth density (6000 cells per well) in 96-well plates (BD Falcon, France). The cells were then treated with vehicle or tests compounds (from 0.01 μM to 10 μM) for 24–72 h. The mitochondrial metabolization of the tetrazolium salt 3-(4,5-methyltiazol-2yl-)-2,5diphenyl-tetrazolium bromide] (MTT) (Applichen, Darmstadt, Germany) was used as an indicator of cell viability.
(§4) Figure 6 Effects of lignans on ER+ breast cancer cell viability. […] Then, the mitochondrial metabolization of MTT was used as an indicator of cell viability, as described in the Material and Methods. Data are expressed as mean ± SEM for at least three independent experiments, where each concentration is tested in triplicate. * p < 0.05, ** p < 0.01, and *** p < 0.001 versus VEH-treated cells.

T47D and MCF7 cells = assay: MTT cell viability, E2 non-depleted T47D and MCF7 cells, 72 h; assay type: cell-based, human; details: 10 μM, maximum reduction
Protocol: as §1, §2, §3, §4

[2] = molecular target: T2, ERα from rat uterine cytosol (RUC) (Rattus norvegicus, UniProt P06211); assay: Rat uterine cytosol competitive radioligand ([3H]E2) binding assay
T2 construct: from tissue
T2 sequence (P06211 1-600): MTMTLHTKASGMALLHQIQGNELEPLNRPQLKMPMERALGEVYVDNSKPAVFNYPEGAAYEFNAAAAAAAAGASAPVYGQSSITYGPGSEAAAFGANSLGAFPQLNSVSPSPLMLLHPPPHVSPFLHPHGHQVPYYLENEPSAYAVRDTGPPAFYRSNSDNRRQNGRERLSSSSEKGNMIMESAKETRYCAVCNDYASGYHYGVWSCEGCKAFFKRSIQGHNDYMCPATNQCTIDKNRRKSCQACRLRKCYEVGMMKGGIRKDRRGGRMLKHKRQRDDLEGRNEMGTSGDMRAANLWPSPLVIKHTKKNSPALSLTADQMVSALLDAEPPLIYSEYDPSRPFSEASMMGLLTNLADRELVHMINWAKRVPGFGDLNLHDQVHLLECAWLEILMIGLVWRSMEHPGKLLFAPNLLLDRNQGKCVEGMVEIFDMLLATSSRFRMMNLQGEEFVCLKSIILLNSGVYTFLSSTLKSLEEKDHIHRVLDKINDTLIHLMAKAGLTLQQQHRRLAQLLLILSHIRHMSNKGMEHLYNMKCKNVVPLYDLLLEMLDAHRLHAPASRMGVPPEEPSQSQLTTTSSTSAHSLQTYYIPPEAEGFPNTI

## COc1ccc(C[C@@H](C)[C@H](C)Cc2ccc(O)c(O)c2)cc1OC [Compound 14, 4-((2R,3R)-4-(3,4-Dimethoxyphenyl)-2,3-dimethylbutyl)benzene-1,2-diol]
[1]
  E/Emax (%) VEH: weak estrogenic activity
[1]; Homo sapiens, read-out: E/Emax (%) VEH
  Emax: 21.7 ± 4.12%
rhERα-LBD
  IC50: 160 ± 110 nM
T47D cells
  reduction of cell viability: reduced cell viability
T47D and MCF7 cells
  reduction of cell viability: 33.4%
[2]
  IC50: 3960 ± 980 nM
